Some test systems named below: BT-549 breast; HL-60(TB) leukemia; SR leukemia; PC-3 prostate; OVCAR-4 ovarian; CCRF-CEM leukemia; SNB-19 CNS; M14 melanoma; DU-145 prostate; HT29 colon; SK-MEL-28 melanoma; KM12 colon; MDA-N; HCC-2998 colon; NCI-H522 lung; A498 renal.
Assay in all cases: NCI-60 cell line screen, 48 h

TGI data for ten compounds are collected here from PubChem BioAssay (NCI).

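Interpolation was linear, between the two tested concentrations surrounding the appropriate level; five concentrations were tested over 48 hours in 96-well plates. TGI: concentration producing complete growth inhibition.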

On to `O=C(OCCN=C1c2ccccc2CCc2ccccc21)c1cc([N+](=O)[O-])cc([N+](=O)[O-])c1`, for which the TGI in the test with BT-549 breast was more than 100 µM; with HL-60(TB) leukemia, more than 100 µM; in the test with SR leukemia it was 5.5 µM; in the test with PC-3 prostate it was more than 31.6 µM; in the test with OVCAR-4 ovarian, more than 100 µM; with CCRF-CEM leukemia, more than 100 µM. For the same compound, the TGI in the test on SNB-19 CNS, in the test on M14 melanoma, in the test with DU-145 prostate, with HT29 colon, with SK-MEL-28 melanoma and in the test on KM12 colon was more than 31.6 µM each time. In the test with MDA-N, this compound displayed a TGI of more than 31.6 µM.

Take `CCOC(=O)/C(C#N)=C/c1ccc2c(-c3c(OCC)ccc4cc(/C=C(\C#N)C(=O)OCC)ccc34)c(OCC)ccc2c1`: the TGI in the test on HCC-2998 colon, in the test on BT-549 breast, in the test on NCI-H522 lung, in the test with HL-60(TB) leukemia, with PC-3 prostate and in the test with OVCAR-4 ovarian was more than 100 µM in each case. For the same compound, the TGI with CCRF-CEM leukemia was more than 100 µM; in the test on SNB-19 CNS, more than 100 µM; with A498 renal it was more than 100 µM; with M14 melanoma, 35.7 µM; in the test on DU-145 prostate it was more than 100 µM; in the test on HT29 colon, more than 100 µM. Besides, the TGI in the test with SK-MEL-28 melanoma, in the test with KM12 colon and in the test on MDA-N was more than 100 µM in each case.

With `CNc1ncnc(Sc2nc(N)nc3nc[nH]c23)c1[N+](=O)[O-]`, the TGI with BT-549 breast was determined as 20.1 µM; in the test with NCI-H522 lung, 6.76 µM; with HL-60(TB) leukemia, 6.7 µM; in the test on PC-3 prostate, 22 µM; in the test on OVCAR-4 ovarian, 18.7 µM; in the test on CCRF-CEM leukemia, 0.892 µM. The TGI with SNB-19 CNS was more than 81.2 µM; in the test on A498 renal, more than 100 µM; in the test with M14 melanoma, 19.4 µM; with DU-145 prostate, more than 100 µM; in the test with HT29 colon it was more than 49.5 µM; in the test on SK-MEL-28 melanoma it was 22.2 µM. In addition, the figures for the TGI in the test with KM12 colon and in the test with MDA-N were 25.3 µM and 14.9 µM, respectively.

On to `COC(CN(C)C(=O)C(C)NC(=O)c1ccccc1)OC` (configuration not stated), for which the TGI in the test on BT-549 breast, with NCI-H522 lung, with SR leukemia, in the test on PC-3 prostate, with OVCAR-4 ovarian and with CCRF-CEM leukemia was more than 100 µM throughout. Moreover, the TGI in the test with M14 melanoma, in the test on DU-145 prostate, in the test on HT29 colon, with KM12 colon and in the test with MDA-N was more than 100 µM in each case.

Regarding `CC(=O)ON(OC(C)=O)c1ccc(C)cc1`, the TGI in the test with HCC-2998 colon, in the test on BT-549 breast, in the test on NCI-H522 lung, in the test with PC-3 prostate, with OVCAR-4 ovarian and in the test on SNB-19 CNS was more than 100 µM each time. Besides, the TGI in the test on A498 renal, in the test with M14 melanoma, in the test on DU-145 prostate, in the test on HT29 colon, in the test on SK-MEL-28 melanoma and with KM12 colon was more than 100 µM each time. This compound returned a TGI with MDA-N of more than 100 µM.

Consider `CCC1(C)C=Cc2c(cc(OC)c3c(=O)c4ccccc4n(C)c23)O1` (configuration not stated), for which the TGI in the test on HCC-2998 colon, with BT-549 breast, with NCI-H522 lung, in the test with PC-3 prostate, in the test with OVCAR-4 ovarian and in the test on CCRF-CEM leukemia was more than 10 µM each time. In addition, the TGI with SNB-19 CNS, in the test with A498 renal, in the test on M14 melanoma, in the test with DU-145 prostate, with HT29 colon and with SK-MEL-28 melanoma was more than 10 µM each time. In addition, the TGI with KM12 colon and in the test on MDA-N was more than 10 µM in each case.

For `Cc1cc(-c2ccc(C(=O)O)[nH]2)on1`, the TGI in the test on HCC-2998 colon, with BT-549 breast, with NCI-H522 lung, in the test with PC-3 prostate, with OVCAR-4 ovarian and in the test on SNB-19 CNS was more than 100 µM each time. For the same compound, the TGI with A498 renal, in the test on M14 melanoma, in the test with DU-145 prostate, with HT29 colon, with SK-MEL-28 melanoma and in the test on KM12 colon was more than 100 µM throughout. The compound further displayed a TGI with MDA-N of 23.7 µM.

Consider `CCOC(=O)C1(C(=O)OCC)C[C@]23OCCC(=O)[C@H]2[C@H]2C(=O)OC(C)(C)O[C@]23C1`, for which the TGI in the test with HCC-2998 colon, in the test on NCI-H522 lung, with HL-60(TB) leukemia, in the test on SR leukemia, in the test with PC-3 prostate and with OVCAR-4 ovarian was more than 100 µM in each case. Also, the TGI with CCRF-CEM leukemia, in the test with SNB-19 CNS, in the test on A498 renal, in the test with M14 melanoma, in the test with DU-145 prostate and with HT29 colon was more than 100 µM in each case. The TGI in the test with SK-MEL-28 melanoma, in the test with KM12 colon and in the test with MDA-N was more than 100 µM throughout.

With `CC/C(=N\NC(=O)c1cccnc1)c1ccc2c(c1)OCCO2`, the TGI in the test on BT-549 breast is more than 100 µM; in the test with NCI-H522 lung, 79.5 µM; in the test with HL-60(TB) leukemia, more than 100 µM; with PC-3 prostate, more than 100 µM; in the test with OVCAR-4 ovarian it was more than 100 µM; with CCRF-CEM leukemia, more than 100 µM. Further, the TGI with SNB-19 CNS, in the test on A498 renal, in the test with M14 melanoma, in the test on DU-145 prostate, in the test on HT29 colon and in the test with SK-MEL-28 melanoma was more than 100 µM in each case. Moreover, the TGI with KM12 colon and in the test on MDA-N was more than 100 µM each time.

Consider `CCOC(=O)c1cc2cc(N(C(C)=O)C(C)=O)ccc2s1`, for which the TGI in the test on HCC-2998 colon is more than 100 µM; in the test on BT-549 breast, 91.5 µM; in the test with NCI-H522 lung, 55.3 µM; in the test on HL-60(TB) leukemia, 39.2 µM; in the test with PC-3 prostate, 46.2 µM; in the test on OVCAR-4 ovarian, more than 100 µM. For the same compound, the TGI in the test on CCRF-CEM leukemia was more than 100 µM; in the test on SNB-19 CNS it was more than 100 µM; in the test on A498 renal, 35.1 µM; with M14 melanoma it was more than 100 µM; in the test on DU-145 prostate, more than 100 µM; in the test with HT29 colon, 67.9 µM. Also, the TGI with SK-MEL-28 melanoma, in the test on KM12 colon and in the test on MDA-N was more than 100 µM throughout.
